Assay results reported in the supplement of paper PMC10307832.

What was measured:
Assay in all cases: relative viability (nuclei count vs DMSO), 5 days (fraction); higher = more cells survive
NCI-H838 = tested on: NCI-H838
How it was run: (§1)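 Relative viability divides the nuclei count in treated wells by that in vehicle wells. Lung cancer cell lines were seeded in 1536-well plates, dosed by pin tool the next day, and fixed and stained after 5 days in one step with final 0.05% Triton X-100, 1% formaldehyde and 1 ug/ml Hoechst. Dosing was a single drug or a fixed anchor-drug dose plus five library-drug doses (not always all listed) in √10 steps, and values are medians of duplicate plates imaged at 4×.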

LU99A = tested on: LU99A
How it was run: as §1

NCI-H650 = tested on: NCI-H650
How it was run: as §1

NCI-H1563 = tested on: NCI-H1563
How it was run: as §1

SW 1573 = tested on: SW 1573
How it was run: as §1

LCLC-103H = tested on: LCLC-103H
How it was run: as §1

NCI-H460 = tested on: NCI-H460
How it was run: as §1

LCLC-97TM1 = tested on: LCLC-97TM1
How it was run: as §1

A-427 = tested on: A-427
How it was run: as §1

NCI-H1793 = tested on: NCI-H1793
How it was run: as §1

201T = tested on: 201T
How it was run: as §1

CC1(C)CCC(c2ccc(Cl)cc2)=C(CN2CCN(c3ccc(C(=O)NS(=O)(=O)c4ccc(N[C@H](CCN5CCOCC5)CSc5ccccc5)c(S(=O)(=O)C(F)(F)F)c4)cc3)CC2)C1 [Navitoclax] + Nc1nc2[nH]cc(CCc3ccc(C(=O)N[C@@H](CCC(=O)O)C(=O)O)cc3)c2c(=O)[nH]1 [Pemetrexed] (partner 0.2 µM)
relative viability (NCI-H838; first compound 0.005 µM): 0.242 | relative viability (NCI-H838; first compound 0.01581 µM): 0.254 | relative viability (NCI-H838; first compound 0.05 µM): 0.28 | relative viability (NCI-H838; first compound 0.1581 µM): 0.266 | relative viability (NCI-H838; first compound 0.5 µM): 0.244 | relative viability (LU99A; first compound 0.005 µM): 0.202 | relative viability (LU99A; first compound 0.01581 µM): 0.205 | relative viability (LU99A; first compound 0.1581 µM): 0.196 | relative viability (LU99A; first compound 0.5 µM): 0.167 | relative viability (NCI-H650; first compound 0.005 µM): 0.9 | relative viability (NCI-H650; first compound 0.01581 µM): 1.05 | relative viability (NCI-H650; first compound 0.05 µM): 0.908 | relative viability (NCI-H650; first compound 0.1581 µM): 0.95 | relative viability (NCI-H650; first compound 0.5 µM): 0.999 | relative viability (NCI-H1563; first compound 0.005 µM): 0.656 | relative viability (NCI-H1563; first compound 0.01581 µM): 0.739 | relative viability (NCI-H1563; first compound 0.05 µM): 0.608 | relative viability (NCI-H1563; first compound 0.1581 µM): 0.805 | relative viability (NCI-H1563; first compound 0.5 µM): 0.861 | relative viability (SW 1573; first compound 0.005 µM): 0.925 | relative viability (SW 1573; first compound 0.01581 µM): 0.773 | relative viability (SW 1573; first compound 0.05 µM): 0.787 | relative viability (SW 1573; first compound 0.1581 µM): 0.751 | relative viability (SW 1573; first compound 0.5 µM): 0.801 | relative viability (LCLC-103H; first compound 0.005 µM): 0.473 | relative viability (LCLC-103H; first compound 0.01581 µM): 0.425 | relative viability (LCLC-103H; first compound 0.05 µM): 0.401 | relative viability (LCLC-103H; first compound 0.1581 µM): 0.442 | relative viability (LCLC-103H; first compound 0.5 µM): 0.368 | relative viability (NCI-H460; first compound 0.005 µM): 0.0632 | relative viability (NCI-H460; first compound 0.01581 µM): 0.067 | relative viability (NCI-H460; first compound 0.05 µM): 0.0532 | relative viability (NCI-H460; first compound 0.1581 µM): 0.059 | relative viability (NCI-H460; first compound 0.5 µM): 0.0583 | relative viability (LCLC-97TM1; first compound 0.005 µM): 0.182 | relative viability (LCLC-97TM1; first compound 0.01581 µM): 0.191 | relative viability (LCLC-97TM1; first compound 0.05 µM): 0.158 | relative viability (LCLC-97TM1; first compound 0.1581 µM): 0.156 | relative viability (LCLC-97TM1; first compound 0.5 µM): 0.204 | relative viability (A-427; first compound 0.005 µM): 1.01 | relative viability (A-427; first compound 0.01581 µM): 0.896 | relative viability (A-427; first compound 0.05 µM): 0.968 | relative viability (A-427; first compound 0.1581 µM): 1.14 | relative viability (A-427; first compound 0.5 µM): 1.04 | relative viability (NCI-H1793; first compound 0.005 µM): 0.72 | relative viability (NCI-H1793; first compound 0.01581 µM): 1.09 | relative viability (NCI-H1793; first compound 0.1581 µM): 0.828 | relative viability (NCI-H1793; first compound 0.5 µM): 0.643 | relative viability (201T; first compound 0.005 µM): 0.299 | relative viability (201T; first compound 0.01581 µM): 0.31 | relative viability (201T; first compound 0.05 µM): 0.34 | relative viability (201T; first compound 0.1581 µM): 0.321 | relative viability (201T; first compound 0.5 µM): 0.357
